Like-named read-outs stand apart in the source and are kept apart here.
Columns and labels:
[1] = system: AMO-1 human multiple myeloma tumor cell line; assay: AMO-1 cell viability assay (CellTiter-Glo, 24 hours); format: cell-based; settings: Homo sapiens, AMO1, 24 h, read-out: AMO-1 Viability IC50 (μM, 10% FBS), 10% FBS, 24 hours of compound treatment
GST-MCL-1 = GST-MCL-1 (Homo sapiens, UniProt Q07820); assay: TR-FRET MCL-1 binding assay (competition with probe F-Bak)
Procedure, shortened: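 Test compounds, 11 three-fold dilutions from 25 μM final, incubated 2 hours at room temperature with GST-MCL-1, F-Bak probe and Tb-anti-GST antibody. TR-FRET read at 340/35 nm excitation with 520/525 and 495/510 nm emission. Run without human serum and with 10% HS.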

[2] = system: NCI-H929 human multiple myeloma tumor cell line; assay: NCI-H929 cell viability assay (CellTiter-Glo, 24 hours); format: cell-based; settings: Homo sapiens, NCI-H929, 24 h, read-out: H929 Viability IC50 (μM, 10% FBS), 10% FBS, 24 hours of compound treatment
Description: Each concentration was tested in duplicate at least 3 independent times. A luminescent signal proportional to the number of viable cells following 24 hours of compound treatment was determined using the CellTiter-Glo® Luminescent Cell Viability Assay according to the manufacturer's recommendations (Promega Corp., Madison, WI). The plates were read in a Perkin Elmer Envision using a Luminescence protocol. To generate dose response curves the data is normalized to percent viability by setting the averages of the staurosporine (10 μM) and DMSO only control wells to 0% and 100% viability respectively.

[3] = MCL-1 Binding Ki (nM, 10% HS), in the presence of 10% HS (human serum)
[4] = without HS, read-out: MCL-1 Binding Ki

GST-MCL-1, sequence (Q07820 whole entry): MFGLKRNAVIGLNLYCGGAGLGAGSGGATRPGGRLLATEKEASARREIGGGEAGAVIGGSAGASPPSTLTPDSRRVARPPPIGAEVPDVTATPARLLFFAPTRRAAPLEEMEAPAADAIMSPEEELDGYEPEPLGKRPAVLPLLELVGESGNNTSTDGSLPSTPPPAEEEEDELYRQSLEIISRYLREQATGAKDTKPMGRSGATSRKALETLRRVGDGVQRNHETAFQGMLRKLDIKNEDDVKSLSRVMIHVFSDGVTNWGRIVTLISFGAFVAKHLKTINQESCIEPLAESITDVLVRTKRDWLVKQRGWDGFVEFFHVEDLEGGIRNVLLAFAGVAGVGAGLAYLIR

COCCOCCOCCOC[C@@H]1CN(c2nccc(COc3ccc4cc3C[C@H](C(=O)O)Oc3ncnc5sc(-c6ccc(F)cc6)c(c35)-c3c(C)c(Cl)c(c(Cl)c3C)O[C@H](CN3CCN(C)CC3)CO4)n2)CCO1 [Example 68, (7R,16R)-19,23-dichloro-1-(4-fluorophenyl)-20,22-dimethyl-16-[(4-methylpiperazin-1-yl)methyl]-10-({2-[(2S)-2-(2,5,8,11-tetraoxadodecan-1-yl)morpholin-4-yl]pyrimidin-4-yl}methoxy)-7,8,15,16-tetrahydro-18,21-etheno-13,9-(metheno)-6,14,17-trioxa-2-thia-3,5-diazacyclononadeca[1,2,3-cd]indene-7-carboxylic Acid]
IC50 [1]: 0.000426 µM | Ki (GST-MCL-1; [3]): 0.209 nM | Ki (GST-MCL-1; [4]): 0.031 nM | IC50 [2]: 0.000938 µM

COCCOCCOCC1CN(c2nccc(COc3ccc4cc3C[C@H](C(=O)O)Oc3ncnc5sc(-c6ccc(F)cc6)c(c35)-c3c(C)c(Cl)c(c(Cl)c3C)O[C@H](CN3CCN(C)CC3)CO4)n2)C1 [Example 139, (7R,16R)-19,23-dichloro-1-(4-fluorophenyl)-10-{[2-(3-{[2-(2-methoxyethoxy)ethoxy]methyl}azetidin-1-yl)pyrimidin-4-yl]methoxy}-20,22-dimethyl-16-[(4-methylpiperazin-1-yl)methyl]-7,8,15,16-tetrahydro-18,21-etheno-9,13-(metheno)-6,14,17-trioxa-2-thia-3,5-diazacyclononadeca[1,2,3-cd]indene-7-carboxylic Acid]
IC50 [1]: 0.00231 µM | Ki (GST-MCL-1; [3]): 1.21 nM | Ki (GST-MCL-1; [4]): 0.147 nM | IC50 [2]: 0.00307 µM

Cc1c(Cl)c2c(Cl)c(C)c1-c1c(-c3ccc(F)cc3)sc3ncnc(c13)O[C@@H](C(=O)O)Cc1cc(ccc1OCc1ccnc(N3CCOCCOCCOCCOCC3)n1)OC[C@@H](CN1CCN(C)CC1)O2 [Example 115, (7R,16R)-19,23-dichloro-1-(4-fluorophenyl)-20,22-dimethyl-16-[(4-methylpiperazin-1-yl)methyl]-10-{[2-(1,4,7,10-tetraoxa-13-azacyclopentadecan-13-yl)pyrimidin-4-yl]methoxy}-7,8,15,16-tetrahydro-18,21-etheno-13,9-(metheno)-6,14,17-trioxa-2-thia-3,5-diazacyclononadeca[1,2,3-cd]indene-7-carboxylic Acid]
IC50 [1]: 0.000593 µM | Ki (GST-MCL-1; [3]): 0.862 nM | Ki (GST-MCL-1; [4]): 0.093 nM | IC50 [2]: 0.00113 µM

Cc1c(Cl)c2c(Cl)c(C)c1-c1c(-c3ccc(F)cc3)sc3ncnc(c13)O[C@@H](C(=O)O)Cc1cc(ccc1OCc1ccnc(C(CO)CO)n1)OC[C@@H](CN1CCN(C)CC1)O2 [Example 62, (7R,16R)-19,23-dichloro-10-{[2-(1,3-dihydroxypropan-2-yl)pyrimidin-4-yl]methoxy}-1-(4-fluorophenyl)-20,22-dimethyl-16-[(4-methylpiperazin-1-yl)methyl]-7,8,15,16-tetrahydro-18,21-etheno-9,13-(metheno)-6,14,17-trioxa-2-thia-3,5-diazacyclononadeca[1,2,3-cd]indene-7-carboxylic Acid]
IC50 [1]: 0.0251 µM | Ki (GST-MCL-1; [3]): 2.26 nM | Ki (GST-MCL-1; [4]): 0.324 nM | IC50 [2]: 0.095 µM

Cc1c(Cl)c2c(Cl)c(C)c1-c1c(-c3ccc(F)cc3)sc3ncnc(c13)O[C@@H](C(=O)O)Cc1cc(ccc1OCc1ccnc(C3(COCCOCCOC[C@H]4COCCO4)CCC3)n1)OC[C@@H](CN1CCN(C)CC1)O2 [Example 72, (7R,16R)-19,23-dichloro-10-{[2-(1-{[2-(2-{[(2R)-1,4-dioxan-2-yl]methoxy}ethoxy)ethoxy]methyl}cyclobutyl)pyrimidin-4-yl]methoxy}-1-(4-fluorophenyl)-20,22-dimethyl-16-[(4-methylpiperazin-1-yl)methyl]-7,8,15,16-tetrahydro-18,21-etheno-13,9-(metheno)-6,14,17-trioxa-2-thia-3,5-diazacyclononadeca[1,2,3-cd]indene-7-carboxylic Acid]
IC50 [1]: 0.000331 µM | Ki (GST-MCL-1; [3]): 0.184 nM | Ki (GST-MCL-1; [4]): 0.064 nM | IC50 [2]: 0.000743 µM

CO[C@H]1O[C@H](COc2ccc(-c3nccc(COc4ccc5cc4C[C@H](C(=O)O)Oc4ncnc6sc(-c7ccc(F)cc7)c(c46)-c4ccc(c(Cl)c4C)CN(CCN4CCN(C)CC4)C5)n3)cc2)[C@@H](O)[C@H](O)[C@H]1O [Example 9, methyl 6-O-{4-[4-({[(7R,20S)-7-carboxy-18-chloro-1-(4-fluorophenyl)-19-methyl-15-[2-(4-methylpiperazin-1-yl)ethyl]-7,8,15,16-tetrahydro-14H-17,20-etheno-13,9-(metheno)-6-oxa-2-thia-3,5,15-triazacyclooctadeca[1,2,3-cd]inden-10-yl]oxy}methyl)pyrimidin-2-yl]phenyl}-a-D-glucopyranoside]
IC50 [1]: 0.732 µM | Ki (GST-MCL-1; [3]): 0.296 nM | Ki (GST-MCL-1; [4]): 0.048 nM | IC50 [2]: > 1 µM

Cc1c(Cl)c2c(Cl)c(C)c1-c1c(-c3ccc(F)cc3)sc3ncnc(c13)O[C@@H](C(=O)O)Cc1cc(ccc1OCc1ccnc(-c3ccc(CN4CCS(=O)(=O)CC4)cc3)n1)OC[C@@H](CN1CCN(C)CC1)O2 [Example 126, (7R,16R)-19,23-dichloro-10-[(2-{4-[(1,1-dioxo-1˜^6-thiomorpholin-4-yl)methyl]phenyl}pyrimidin-4-yl)methoxy]-1-(4-fluorophenyl)-20,22-dimethyl-16-[(4-methylpiperazin-1-yl)methyl]-7,8,15,16-tetrahydro-18,21-etheno-13,9-(metheno)-6,14,17-trioxa-2-thia-3,5-diazacyclononadeca[1,2,3-cd]indene-7-carboxylic Acid]
IC50 [1]: 0.000544 µM | Ki (GST-MCL-1; [3]): 0.39 nM | Ki (GST-MCL-1; [4]): 0.043 nM | IC50 [2]: 0.00169 µM

CO[C@@H]1CO[C@H]2[C@@H]1OC[C@H]2OCCOCCOc1ccc(-c2nccc(COc3ccc4cc3C[C@H](C(=O)O)Oc3ncnc5sc(-c6ccc(F)cc6)c(c35)-c3c(C)c(Cl)c(c(Cl)c3C)O[C@H](CN3CCN(C)CC3)CO4)n2)cc1 [Example 159, (7R,16R)-19,23-dichloro-1-(4-fluorophenyl)-10-[(2-{4-[2-(2-{[(3R,3aR,6R,6aR)-6-methoxyhexahydrofuro[3,2-b]furan-3-yl]oxy}ethoxy)ethoxy]phenyl}pyrimidin-4-yl)methoxy]-20,22-dimethyl-16-[(4-methylpiperazin-1-yl)methyl]-7,8,15,16-tetrahydro-18,21-etheno-13,9-(metheno)-6,14,17-trioxa-2-thia-3,5-diazacyclononadeca[1,2,3-cd]indene-7-carboxylic Acid]
IC50 [1]: 0.000296 µM | Ki (GST-MCL-1; [3]): 0.087 nM | Ki (GST-MCL-1; [4]): 0.008 nM | IC50 [2]: 0.000379 µM

COCCOCCOCCOc1ccc(-c2nccc(COc3ccc4cc3C[C@H](C(=O)O)Oc3ncnc5sc(-c6ccc(F)cc6)c(c35)-c3c(C)c(Cl)c(c(Cl)c3C)O[C@H](CN3CCN(C)CC3)CO4)n2)cc1 [Example 16, (7R,16R)-19,23-dichloro-1-(4-fluorophenyl)-10-{[2-(4-{2-[2-(2-methoxyethoxy)ethoxy]ethoxy}phenyl)pyrimidin-4-yl]methoxy}-20,22-dimethyl-16-[(4-methylpiperazin-1-yl)methyl]-7,8,15,16-tetrahydro-18,21-etheno-13,9-(metheno)-6,14,17-trioxa-2-thia-3,5-diazacyclononadeca[1,2,3-cd]indene-7-carboxylic Acid]
IC50 [1]: 0.000177 µM | Ki (GST-MCL-1; [3]): 0.359 nM | Ki (GST-MCL-1; [4]): 0.028 nM | IC50 [2]: 0.000347 µM

Cc1c(Cl)c2c(Cl)c(C)c1-c1c(-c3ccc(F)cc3)sc3ncnc(c13)O[C@@H](C(=O)O)Cc1cc(ccc1OCc1ccnc(-c3ccc(CN4CCOCCOCCOCCOCC4)cc3)n1)OC[C@@H](CN1CCN(C)CC1)O2 [Example 129, (7R,16R)-19,23-dichloro-1-(4-fluorophenyl)-20,22-dimethyl-16-[(4-methylpiperazin-1-yl)methyl]-10-[(2-{4-[(1,4,7,10-tetraoxa-13-azacyclopentadecan-13-yl)methyl]phenyl}pyrimidin-4-yl)methoxy]-7,8,15,16-tetrahydro-18,21-etheno-13,9-(metheno)-6,14,17-trioxa-2-thia-3,5-diazacyclononadeca[1,2,3-cd]indene-7-carboxylic Acid]
IC50 [1]: 0.000144 µM | Ki (GST-MCL-1; [3]): 0.064 nM | Ki (GST-MCL-1; [4]): 0.002 nM | IC50 [2]: 0.000562 µM

COCCOCCOC[C@@]1(F)CC=C(c2nccc(COc3ccc4cc3C[C@H](C(=O)O)Oc3ncnc5sc(C6=CCCC6)c(c35)-c3c(C)c(Cl)c(c(Cl)c3C)O[C@H](CN3CCN(C)CC3)CO4)n2)CC1 (relative stereo) [Example 135, (7R,16R)-19,23-dichloro-1-(cyclopent-1-en-1-yl)-10-({2-[(4S*)-4-fluoro-4-{[2-(2-methoxyethoxy)ethoxy]methyl}cyclohex-1-en-1-yl]pyrimidin-4-yl}methoxy)-20,22-dimethyl-16-[(4-methylpiperazin-1-yl)methyl]-7,8,15,16-tetrahydro-18,21-etheno-13,9-(metheno)-6,14,17-trioxa-2-thia-3,5-diazacyclononadeca[1,2,3-cd]indene-7-carboxylic Acid]
IC50 [1]: 0.000191 µM | Ki (GST-MCL-1; [3]): 0.489 nM | Ki (GST-MCL-1; [4]): 0.029 nM | IC50 [2]: 0.000591 µM

Cc1c2ccc(c1Cl)O[C@H](CN1CCN(C)CC1)COc1ccc(OCc3ccnc(N4CCC5(CC4)CC(F)(F)CO5)n3)c(c1)C[C@H](C(=O)O)Oc1ncnc3sc(-c4ccc(F)cc4)c-2c13 [Example 78, (7R,16R)-19-chloro-10-{[2-(3,3-difluoro-1-oxa-8-azaspiro[4.5]decan-8-yl)pyrimidin-4-yl]methoxy}-1-(4-fluorophenyl)-20-methyl-16-[(4-methylpiperazin-1-yl)methyl]-7,8,15,16-tetrahydro-18,21-etheno-13,9-(metheno)-6,14,17-trioxa-2-thia-3,5-diazacyclononadeca[1,2,3-cd]indene-7-carboxylic Acid]
IC50 [1]: 0.000935 µM | Ki (GST-MCL-1; [3]): 16 nM | Ki (GST-MCL-1; [4]): 2.28 nM | IC50 [2]: 0.00552 µM

Reference: US20250313572A1, “MACROCYCLIC MCL-1 INHIBITORS AND METHODS OF USE” (AbbVie Inc., priority 2017, published 2025)
